This assay is described as follows: viability loss in fusion assay cells – cell-based, MAGI and MAGI-HeLa co-culture, cytotoxicity control for HIV-1 fusion inhibitor project, dose response (AID 2286).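 On all read-outs here: cells exposed to compound for at least 64 h before ATP readout; 100% = median of DMSO vehicle wells with no ATP signal meaning 0%.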 The conditions noted are these: MAGI-CCR5 cells viability, CellTiter-Glo ATP luminescence; for minimum viability: measured here: MAGI minimum viability across doses. (In general: ATP-based viability assays read luminescence as a measure of living cells.)

Setting [1] is: MAGI-HeLa co-culture viability, at 50 µM, stronger effect = lower value.
Where [2] appears, read: at 12.5 µM, stronger effect = lower value.
Setting [3] is: at 6.25 µM, stronger effect = lower value.
[4] abbreviates: at 3.13 µM, stronger effect = lower value.

Active and inactive are the calls of the source.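 How the source made its calls: active means minimum cell viability of 80% or lower across the dose range, counted as toxic; inactive means minimum cell viability above 80%.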

The viability is a read-out of living cells in per cent, often relative to untreated cells. On to `O=C(Nc1cccc(C(F)(F)F)c1)c1cccc(NS(=O)(=O)c2ccc(O)c(C(=O)O)c2)c1`, for which the viability was 107% under setting [1] and 85.7% (inactive) (at 50 µM (top of the series)). Moreover, where the note is “at 25 µM, stronger effect = lower value”, the minimum viability stood at 83.3%.
As for `COc1ccc(C(=O)Nc2ccc(/C(C)=N/NC(=O)c3ccncc3)cc2)cc1`, the viability was 121% under setting [1] and 88.5% (inactive) (at 50 µM (top of the series)). The minimum viability (at 50 µM, stronger effect = lower value) was found to be 88.5%.
Turning to `O=C(CN1C(=O)S/C(=C\C=C\c2ccccc2)C1=O)Nc1ccccc1C(=O)O`, the viability under setting [1] came out at 103% and the viability (at 50 µM (top of the series)) is 90.4% (inactive). Also, the minimum viability under setting [2] stood at 83.6%.
Take `COc1cc(/C=C2\C(=N)N3N=C(S(C)(=O)=O)SC3=NC2=O)ccc1OC(=O)c1cccs1`: the viability was 109% under setting [1] and 96.7% (inactive) (at 50 µM (top of the series)). For the same compound, the minimum viability (at 0.2 µM, stronger effect = lower value) came to 86.5%.
Take `CCOC(=O)c1c(N2C(=O)Nc3cc(Cl)c(Cl)cc3N2O)sc2c1CCCCC2`: the viability under setting [1] came to 98.1%. Besides, under “at 50 µM, stronger effect = lower value”, the minimum viability was 70.1%.
`O=C(O)COc1ccccc1/C=N/NC(=O)CSc1nnc(SCc2cccc3ccccc23)s1`: the viability under setting [1] is 106% and the viability (at 50 µM (top of the series)) is 92.5% (inactive). Besides, the minimum viability under setting [3] was 86.9%.
For the compound `Cc1ccc(N2C(=O)/C(=C/c3ccc(CN(CCC#N)S(C)(=O)=O)o3)C(=O)NC2=S)cc1C`, the viability is, setting by setting: under setting [1], 98.6%; (at 50 µM (top of the series)) 89.2% (inactive). The minimum viability under setting [2] worked out at 84.4%.
On to `O=C1NN(c2ccc(F)c(Cl)c2)C(=O)/C1=C\c1cccc(OC(=O)c2cccs2)c1`, for which the viability is 111% under setting [1] and 92.7% (inactive) (at 50 µM (top of the series)). Moreover, the minimum viability (at 50 µM, stronger effect = lower value) was determined as 92.7%.
As to `COc1ccc(/C=N/NC(=O)c2[nH]c3ccc(Br)cc3c2-c2ccccc2)c(C(=O)O)c1OC`, the viability runs as follows: under setting [1], 95%; (at 50 µM (top of the series)) 90.4% (inactive). Besides, for the setting “at 50 µM, stronger effect = lower value”, the minimum viability worked out at 90.4%.
For the compound `COc1cc(/C=C2\SC(=O)N(CC(=O)Nc3cccc(C)c3)C2=O)cc([N+](=O)[O-])c1O`, the viability under setting [1] turned out to be 111%. Also, under “at 50 µM, stronger effect = lower value”, the minimum viability worked out at 74.5%.
Take `COc1cc(/C=N/Nc2ccc(Cl)c(C(=O)O)c2)ccc1OC(=O)c1ccc(F)cc1`: the viability under setting [1] stood at 103% and the viability (at 50 µM (top of the series)) was 89.8% (inactive). Besides, where the note is “at 50 µM, stronger effect = lower value”, the minimum viability turned out to be 89.8%.
With `CCCCCCc1c(C)c2ccc(OCC(=O)N[C@@H](Cc3ccccc3)C(=O)O)cc2oc1=O`, the viability under setting [1] worked out at 101% and the viability (at 50 µM (top of the series)) is 96.7% (inactive). The minimum viability under setting [4] came to 90.1%.
Take `O=C(Nc1ccc(-c2nc3ccccc3[nH]2)cc1)c1ccccc1NS(=O)(=O)c1ccc(F)cc1`: the viability under setting [1] amounted to 116%. Under “at 50 µM, stronger effect = lower value”, the minimum viability came out at 64.3%.
For the compound `C=CCOc1ccc(C(c2c(C(=O)O)[nH]c3ccccc23)c2c(C(=O)O)[nH]c3ccccc23)cc1`, the viability runs as follows: under setting [1], 89%; (at 50 µM (top of the series)) 91.1% (inactive). Besides, the minimum viability (at 25 µM, stronger effect = lower value) worked out at 85.9%.
In the case of `O=C(O)c1cc(-c2ccc(/C=N/Nc3ccc(Cl)cc3)o2)ccc1Cl`, the viability under setting [1] worked out at 87.3%. Besides, the minimum viability (at 50 µM, stronger effect = lower value) was found to be 62%.
The matching figures for `Cc1ccc(F)c(NC(=O)/C(C#N)=C(\O)c2ccc(C(C)(C)C)cc2)c1`: 101% and 76.4%.
Consider `COc1ccccc1OCCOc1ccc(/C=C2\C(=N)N3N=C(S(C)(=O)=O)SC3=NC2=O)cc1`, for which the viability is, setting by setting: under setting [1], 98.1%; (at 50 µM (top of the series)) 89.2% (inactive). For the same compound, the minimum viability (at 50 µM, stronger effect = lower value) stood at 89.2%.
The matching figures for `O=C(O)CN1C(=O)/C(=C\c2cc(Br)ccc2OCc2ccccc2F)SC1=S`: 113%, 101% (inactive) and 101%.
For `O=C(O)c1cc(-c2ccc(/C=C3\NC(=O)N(c4ccc(Cl)cc4)C3=O)o2)ccc1Cl`, the viability runs as follows: under setting [1], 95.2%; (at 50 µM (top of the series)) 102% (inactive). Moreover, the minimum viability (at 0.78 µM, stronger effect = lower value) is 93.3%.
Consider `CCOC(=O)c1sc(N2C(=O)C(O)=C(C(=O)c3ccc(C)o3)C2c2cccc([N+](=O)[O-])c2)nc1C` (centres undefined), for which the viability under setting [1] is 94.6%. Moreover, under “at 25 µM, stronger effect = lower value”, the minimum viability came to 63.8%.
Turning to `CCCOc1ccc(C2C(C(=O)c3cc4ccccc4o3)=C(O)C(=O)N2c2cc(C)on2)cc1` (centres undefined), the viability under setting [1] stood at 97.9%. Further, the minimum viability (at 50 µM, stronger effect = lower value) amounted to 67.9%.
Take `COc1cc(/C=N/NC(=O)C(Cc2c[nH]c3ccccc23)NC(=O)OCc2ccccc2)cc([N+](=O)[O-])c1O` (centres undefined): the viability under setting [1] was found to be 107% and the viability (at 50 µM (top of the series)) is 95% (inactive). Also, the minimum viability (at 25 µM, stronger effect = lower value) was 92.5%.
In the case of `Cc1cc(/C=c2\sc3nc4ccccc4n3c2=O)c(C)n1-c1ccc(C(=O)O)cc1`, under setting [1], the viability came out at 89%. For the same compound, the minimum viability (at 50 µM, stronger effect = lower value) was 59.4%.
As to `COc1cccc(NS(=O)(=O)c2ccc3c(c2)C2C=CCC2C(c2ccc(C(=O)O)cc2)N3)c1` (centres undefined), the viability under setting [1] was found to be 120% and the viability (at 50 µM (top of the series)) was 108% (inactive). The minimum viability (at 1.56 µM, stronger effect = lower value) came to 88.6%.
In the case of `O=C(O)COc1ccccc1/C=N/Nc1ccc(S(=O)(=O)Nc2ccc(Cl)cc2)cc1[N+](=O)[O-]`, the viability is 103% under setting [1] and 99.2% (inactive) (at 50 µM (top of the series)). Besides, the minimum viability (at 25 µM, stronger effect = lower value) turned out to be 90.6%.
For `CC(C)(C)OC(=O)N1CCC(c2cc(=O)n3[nH]cc(C(=O)Nc4ccc(F)c(Cl)c4)c3n2)CC1`, in that order: 98.3%, 97.5% (inactive) and 88.7%.
Consider `O=C(O)COc1ccc(/C=N/NC(=O)c2ccc(-c3csc(Nc4ccc(Cl)cc4)n3)cc2)cc1`, for which the viability runs as follows: under setting [1], 96.5%; (at 50 µM (top of the series)) 96.8% (inactive). For the setting “at 25 µM, stronger effect = lower value”, the minimum viability amounted to 83.4%.
With `Cc1ccc(NS(=O)(=O)c2ccc(N/N=C/c3ccccc3OCC(=O)O)c([N+](=O)[O-])c2)c(C)c1`, the viability reads like this: under setting [1], 101%; (at 50 µM (top of the series)) 108% (inactive). Besides, under “at 0.39 µM, stronger effect = lower value”, the minimum viability is 88.5%.
Consider `Cc1ccc(-c2nn(-c3ccccc3)cc2/C=C2\SC(=S)N(CC(=O)O)C2=O)cc1`, for which the viability under setting [1] worked out at 92.3% and the viability (at 50 µM (top of the series)) was 81.7% (inactive). For the same compound, the minimum viability (at 25 µM, stronger effect = lower value) amounted to 80.9%.
Consider `COc1ccc(NS(=O)(=O)c2ccc3c(c2)[C@H]2C=CC[C@H]2[C@@H](c2ccc(C(=O)O)cc2)N3)cc1`, for which the viability was 130% under setting [1] and 99.7% (inactive) (at 50 µM (top of the series)). Moreover, under setting [4], the minimum viability turned out to be 95.3%.
For `O=C(O)c1cc(NN=C2c3ccccc3-c3ccccc32)ccc1Cl`, the viability reads like this: under setting [1], 114%; (at 50 µM (top of the series)) 93.1% (inactive). For the same compound, the minimum viability (at 50 µM, stronger effect = lower value) turned out to be 93.1%.
On to `COC(=O)c1sc(-c2ccc(C(C)(C)C)cc2)cc1NC(=O)COCC(=O)O`, for which the viability under setting [1] was 89%. In addition, for the setting “at 50 µM, stronger effect = lower value”, the minimum viability turned out to be 74.5%.
Turning to `COc1ccc(C(=O)Nc2ccccc2C(=O)O)cc1NC(=O)C(c1ccccc1)c1ccccc1`, the viability by setting is: under setting [1], 116%; (at 50 µM (top of the series)) 99.7% (inactive). Under setting [3], the minimum viability turned out to be 89.1%.
With `O=C(O)c1[nH]c2ccccc2c1C(c1c(F)cccc1Cl)c1c(C(=O)O)[nH]c2ccccc12`, the viability runs as follows: under setting [1], 114%; (at 50 µM (top of the series)) 104% (inactive). Further, the minimum viability (at 0.1 µM, stronger effect = lower value) is 87.9%.
Take `O=C(O)CN1C(=O)/C(=C\c2cccc(OCc3ccc(Cl)cc3Cl)c2)SC1=S`: the viability by setting is: under setting [1], 126%; (at 50 µM (top of the series)) 95.6% (inactive). Moreover, the minimum viability under setting [2] stood at 80.7%.
In the case of `O=C1NN(c2ccc(Cl)c(Cl)c2)C(=O)/C1=C/c1cccc(OC(=O)c2cccs2)c1`, the viability by setting is: under setting [1], 111%; (at 50 µM (top of the series)) 90.3% (inactive). For the same compound, where the note is “at 25 µM, stronger effect = lower value”, the minimum viability amounted to 86.1%.
As to `O=C(O)C(c1ccccc1)N1C(=O)/C(=C\c2ccc(O)c(O)c2)SC1=S` (centres undefined), the viability by setting is: under setting [1], 95.1%; (at 50 µM (top of the series)) 105% (inactive). The minimum viability under setting [2] was found to be 99.2%.
Take `COc1ccc(/C=C2/SC(=O)N(CCCCCC(=O)Nc3ccccc3C(=O)O)C2=S)cc1`: the viability under setting [1] was 122%. Also, the minimum viability (at 50 µM, stronger effect = lower value) came out at 66.9%.
Take `CCc1nnc(NS(=O)(=O)c2ccc(NC(=S)NC(=O)/C=C/c3ccc(C(C)C)cc3)cc2)s1`: the viability under setting [1] stood at 117% and the viability (at 50 µM (top of the series)) was 82.2% (inactive). For the same compound, the minimum viability (at 50 µM, stronger effect = lower value) worked out at 82.2%.
`O=C(COc1ccc(Cl)cc1)Nc1cc(NC(=O)COc2ccc(Cl)cc2)cc(C(=O)O)c1`: the viability was 99.5% under setting [1] and 105% (inactive) (at 50 µM (top of the series)). Also, the minimum viability under setting [2] was 98.6%.
The matching figures for `Cc1noc(NS(=O)(=O)c2ccc(NC(=O)Nc3ccc(Cl)c(Cl)c3)cc2)c1C`: 120%, 95.5% (inactive) and 93%.
As to `O=C(N/N=C/c1cc(Cl)cc([N+](=O)[O-])c1O)c1ccccc1NS(=O)(=O)c1cccs1`, the viability is 107% under setting [1] and 96.6% (inactive) (at 50 µM (top of the series)). Under setting [2], the minimum viability was 92.8%.
In the case of `CCOc1cc(/C=N/Nc2cccc(C(=O)O)c2)ccc1OC(=O)c1ccccc1`, the viability by setting is: under setting [1], 110%; (at 50 µM (top of the series)) 95.7% (inactive). The minimum viability under setting [4] worked out at 93.3%.

Source of the values: PubChem BioAssay AID2286 (Southern Research Specialized Biocontainment Screening …, 2010).
